# Data: publication PMC5489165, “Identification of benzazole compounds that induce HIV-1 transcription” (PLoS ONE, 2017)
# Key:
# [1] = Protein binding, mouse plasma (ultrafiltration); format: in vitro ADME; details: pH 7.4
# Procedure: Binding of test compound to plasma proteins was estimated by incubation of test compounds with mouse or human plasma. Human plasma was obtained from BioreclamationIVT (Westbury, NY). […] After a 15 min incubation at 37°C, triplicate aliquots of the incubation mixtures were transferred to a Millipore Multiscreen Ultracel-10 filter plate (10 kDa molecular mass cut off, EMD Millipore, Billerica, MA). The plate was centrifuged for 60 min at 3000 × g and 37°C. After centrifugation, aliquots of both the ultrafiltrates as well as the incubation mixtures prior to ultrafiltration were analyzed by LC-MS/MS to quantify the concentrations of test compound and reference compounds.
# [2] = Cytotoxicity assay in SupT1 cells (ATP, CellTiter-Glo); format: cell-based; details: human, SupT1 cells; ATP quantification; 72 h; read-out: CC50, SupT1
# Procedure: SupT1 cells were plated at 100,000 per well in 96-well, white-walled plates with serial dilutions of test compound in a total volume of 100 μl RPMI-1640 medium containing 10% FBS and 0.5% DMSO. PBMCs were plated similarly at 50,000 cells/well and stimulated by addition of 40 μg/ml PHA and 80 ng/ml interleukin-2 (IL-2). Cells were incubated for 72 h at 37°C, 5% CO2. ATP was quantified using the CellTiter-Glo Luminescent Cell Viability Assay (Promega, Madison, WI) on a ViewLux microplate imager (Perkin Elmer, Waltham, MA). Percent cytotoxicity was determined relative to vehicle-only treated wells.
# [3] = tested on: HIV-1 transcription in 24STNLSG cells; experiment: SEAP assay in 24STNLSG cells (latency reactivation); format: cell-based; details: for EC2X, 24STNLSG: concentration for 2-fold increase in SEAP activity; for Activity in 24STNLSG cells (in words): structure-activity
# Procedure: SupT1-derived 24STNLSG cells were plated at 100,000 cells/well in black bottom/black walled 96-well plates in 50 μl RPMI-1640 medium (without phenol red) containing 10% FBS. Compound was added in 50 μl of identical medium using three-fold dose-response dilutions, in duplicate. […] TNF-α, a nuclear factor-κB (NF-κB) activator known to induce HIV- expression in cellular models, was used as a positive control. Plates were incubated for 72 h at 37°C, 5% CO2. Plates were then sealed and heated to 65°C for 30 min. Plates were brought to room temperature and 50 μl assay buffer (1 mM MgCl2, 10 mM L-homoarginine, 1 M diethylamine hydrochloride) was added to each well and incubated for 5 min at room temperature. To each well, 50 μl of CSPD Substrate (0.4 mM Ready-to-Use with Sapphire-II Enhancer; Applied Biosystems, Foster City, CA) was added. Plates were incubated for 20 min at room temperature and read on a ViewLux microplate imager (Perkin Elmer, Waltham, MA). Curves were fit by non-linear regression using Prism software (GraphPad, San Diego, CA).
# [4] = Microsome assay, human liver microsomes; format: in vitro ADME
# Procedure: (§1) Human and mouse liver microsomes were obtained from XenoTech, LLC (Kansas City, KS). The reaction mixture was composed of liver microsomes (0.5 mg/mL), 20 mM Tris-HCl pH 7.4, 2.5 mM MgCl2, and an NADPH generating system (0.1 mM NADP, 1.2 mM glucose-6-phosphate and 0.3 units/ml glucose-6-phophate dehydrogenase). […] Test compounds were added to the microsome reaction and loss of parent molecule was monitored after 1 h by LC/MS/MS.
# [5] = Microsome assay, mouse liver microsomes; format: in vitro ADME
# Procedure: as §1
# [6] = tested on: HIV-1 Gag (p24) in ACH-2 cells; experiment: Intracellular staining for HIV Gag in ACH-2 cells (flow cytometry); format: cell-based; details: 16 h, 30 μM Cmpd 1 or Cmpd 2, 10 μM SAHA, 1 mM JQ1 or 10 ng/ml PMA, single experiment (Fig 4A)
# Procedure: ACH-2 cells were treated as indicated and HIV-1 expression was monitored by intracellular staining for p24. Approximately, 1 × 10^6 cells were collected and washed in PBS before fixing by resuspending in 100 μl of BD Cytofix/Cytoperm (BD Biosciences, San Jose, CA) at 4°C for at least 20 min. Cells were then harvested by centrifugation and resuspended in 100 μl BD PermWash (50 mM NH4Cl, 5 mM EDTA, 0.1% saponin, 0.5% BSA, PBS and 1 mg/ml of anti-HIV-Gag PE (Clone KC57, Beckman Coulter, Brea CA). Cells were stained for 30 min, washed with the PermWash, and resuspended in FACS buffer (2 mM EDTA, 0.5% BSA, 1% paraformaldehyde in PBS). Cells were analyzed by flow cytometry using a FACSCalibur instrument (BD Biosciences). Flow cytometry was performed at the Boston University School of Medicine flow cytometry core.
# Fig 4 Induction of HIV-1 expressing cells following treatment with latency reversing agents. ACH-2 cells were not treated or treated with a final concentration of 30 μM Cmpd 1 or Cmpd 2, 10 μM SAHA, 1 mM JQ1 or 10 ng/ml PMA for 16 h. Cells were stained using anti-HIV-Gag-PE and analyzed by flow cytometry. Numbers within the profiles represent the percentage of positive cells. These profiles are from a single experiment. B) Data from four independent experiments. Y-axis is mean of % p24 positive cells. * Cmpd 1 p-value […] compared to other treatments using a two-tailed t-test. TEXT PRINTED IN THE PICTURE: (A) Cmpd 1: Intracellular Gag: 65.6% | (A) Cmpd 2: Intracellular Gag: 33.9% | (A) SAHA: Intracellular Gag: 23.0% | (A) JQ1: Intracellular Gag: 16.7% | (A) PMA: Intracellular Gag: 94.2%
# IL-2 secretion by PBMCs = experiment: IL-2 ELISA in PBMCs; format: cell-based, human; details: 24 h
# Procedure: Cryopreserved PBMCs from a single donor were thawed in RPMI-1640 plus 10% FBS. PBMCs were plated at 5×10^4/well in 96-well plates and compound was added with a final concentration of 0.5% DMSO. Plates were incubated for 24 h at 37°C, 5% CO2. Interleukin-2 was quantified using Human IL-2 DuoSet ELISA (R&D Systems, Minneapolis, MN). Raw data were converted to ng/ml IL-2 using a standard curve obtained in parallel.
# [7] = tested on: Kaposi's sarcoma associated herpesvirus (KSHV) in BCP-1 cells; experiment: KSHV activation assay in BCP-1 cells (ORF50 qRT-PCR); format: cell-based; details: 24 h, concentrations as low as 0.014 ng/ml
# [8] = tested on: Epstein-Barr virus (EBV) in Raji cells; experiment: EBV activation assay in Raji cells (BZLF1 qRT-PCR); format: cell-based; details: Raji cells, 24 h, concentrations as low as 0.014 ng/ml
# [9] = Protein binding, human plasma (ultrafiltration); format: in vitro ADME; details: human plasma, 10 μM, pH 7.4
# HIV-1 LTR = experiment: HIV LTR-driven Rluc reporter in HeLa cells; format: cell-based; details: transfected HeLa cells, 24 h
# Source text: The vector pGL4.77[hRlucP/Hygro] encoding a Renilla luciferase gene including a PEST destabilization sequence, was purchased from Promega (Madison, WI). HIV-1 cDNA was generated from HIVIIIB virus using PureLink® Viral RNA/DNA Mini Kit (Invitrogen). The HIV-1 core promoter region (nucleotides -105 to 60) was amplified from HIVIIIB cDNA using primers designed with NheI (forward: 5ʹ-GCTAGCGGGACTTTCCGCTGGG-3ʹ) and XhoI (reverse: 5ʹ-CTCGAGAGTGGGTTCCCTAGTTAGCCA-3ʹ) flanking restriction site sequences. DNA fragments were generated using Platinum® Taq DNA Polymerase High Fidelity (Invitrogen) and fragment size was verified by electrophoresis using E-Gel® 1.2% agarose (Invitrogen). Fragments were cloned into pCR™2.1 TOPO® (Invitrogen), transformed into One Shot® TOP10 Chemically Competent E. coli (Invitrogen), and selected on LB-agar plates containing 100 μg/ml ampicillin. Individual colonies were grown in LB broth, DNA was isolated using QIAprep® Spin Miniprep Kit (Qiagen), and the inserted fragment was verified by EcoRI digestion followed by electrophoresis using E-Gel® 1.2% agarose (Invitrogen). To insert the HIV-1 LTR into the vector multiple cloning region, the resultant plasmids and pGL4.77[hRlucP/Hygro] were dually digested with NheI and XhoI (New England Biolabs), ligated using ExpressLink™ T4 DNA Ligase (Invitrogen), transformed into One Shot® TOP10 Chemically Competent E. coli (Invitrogen), and selected on LB-agar plates containing 100 μg/ml ampicillin. Clones were picked and DNA isolated using QIAprep® Spin Miniprep Kit (Qiagen) and the inserted fragment was verified by NheI/XhoI digestion followed by electrophoresis using E-Gel® 1.2% agarose (Invitrogen). The resultant plasmid, pGL4.77-LTR, was verified by sequencing at GENEWIZ (South Plainfield, NJ). […] Luciferase activity was quantified using Renilla Luciferase Assay System (Promega, Madison, WI) and results were normalized to the vehicle-treated control.
# [10] = tested on: NF-κB response element reporter in Jurkat cells; experiment: NF-κB-responsive Fluc reporter in Jurkat cells; format: cell-based, human; details: stably-transfected Jurkat cells, 4 h
# Source text: The vector pGL4.32[luc2P/NF-κB-RE/Hygro] was purchased from Promega (Madison, WI), encoding 5 copies of a NF-κB response element driving expression of synthetic firefly luciferase gene, luc2, including a PEST destabilization sequence. Jurkat cells were transfected with this vector using a Gene Pulser® II (Biorad, Hercules, CA) with a 0.4 cm gap cuvette at 0.2 kV and 960 μF. Cells were allowed to recover for three days in RPMI-1640 with 10% FBS and 1% penicillin/streptomycin before selection with 200 μg/ml Hygromycin B for one month. Pooled, stably-transfected cells were plated at 50,000/well in 96-well plates and treated with test compounds in a final concentration of 0.5% DMSO for 4 h at 37°C. Luciferase activity was determined by adding one volume 2× steadylite plus reagent (Perkin Elmer, Waltham, MA) and reading on a ViewLux microplate imager.
compound,measurement,setting,value
"CC(=O)CC(c1ccccc1)c1c(O)c2ccccc2oc1=O (racemic) [Warfarin, (RS)-warfarin, reference compound]","fraction unbound at 15 min, 10 μM","[1]; mouse, plasma",0.047
Nc1ccc2[nH]c(-c3ccc(-c4nc5c(N)cccc5o4)cc3)nc2c1 [Compound 3],CC50 at 72 h,[2],8.8 µM
same,"Max. fold induction, 24STNLSG","[3]; SEAP reporter, 72 h",3 fold
same,"EC2X, 24STNLSG",[3]; 72 h,3.7 µM
Cn1c(-c2ccc(-c3nc4cc(N)ccc4o3)cc2)nc2cc(N)ccc21 [Compound 4],CC50 at 72 h,[2],> 100 µM
same,"EC2X, 24STNLSG",[3]; 72 h,>100 µM
same,Activity in 24STNLSG cells (in words),[3],complete loss of activity
Nc1ccc2oc(-c3ccc(-c4nc5cc(N)ccc5o4)cc3)nc2c1 [Compound 5],CC50 at 72 h,[2],> 100 µM
same,"EC2X, 24STNLSG",[3]; 72 h,>100 µM
same,Activity in 24STNLSG cells (in words),[3],inactive
Nc1ccc2[nH]c(-c3ccc(-c4nc5cc(N)ccc5[nH]4)cc3)nc2c1 [Compound 6],CC50 at 72 h,[2],> 100 µM
same,"EC2X, 24STNLSG",[3]; 72 h,>100 µM
same,Activity in 24STNLSG cells (in words),[3],inactive
"CC(C)N(CCC(C(N)=O)(c1ccccc1)c1ccccn1)C(C)C (stereo not shown) [Disopyramide, reference compound]",HLM stability (% loss of parent compound at 1 h),[4],9%
same,MLM stability (% loss of parent compound at 1 h),[5],12%
"Cc1sc2c(c1C)C(c1ccc(Cl)cc1)=N[C@@H](CC(=O)OC(C)(C)C)c1nnc(C)n1-2 [JQ1, reference compound]","Intracellular Gag, percentage of positive cells",[6],16.7%
"CCCCCCCCCCCCCC(=O)O[C@@H]1[C@@H](C)[C@@]2(O)[C@@H](C=C(CO)C[C@]3(O)C(=O)C(C)=C[C@@H]23)[C@@H]2C(C)(C)[C@]12OC(C)=O [PMA, phorbol 12-myristate 13-acetate, reference compound]",IL-2 secretion by PBMCs (in words),IL-2 secretion by PBMCs,induced high levels of IL-2
same,"Intracellular Gag, percentage of positive cells",[6],94.2%
same,Stimulation of ORF50 mRNA (KSHV),[7],> 35 fold
same,Stimulation of BLZF1 mRNA (EBV),[8],> 35 fold
"CC(C)NCC(O)COc1cccc2ccccc12 (stereo not shown) [Propanolol, propranolol, reference compound]",% Plasma protein binding (human),[9],74.3%
same,% Plasma protein binding (mouse),"[1]; mouse plasma, 10 μM",73.8%
"O=C(CCCCCCC(=O)Nc1ccccc1)NO [SAHA, Suberanilohydroxamic acid, reference compound]","Intracellular Gag, percentage of positive cells",[6],23.0%
TNF-α,Transcription driven by the HIV-1 LTR (in words),HIV-1 LTR,significantly increased expression of this reporter
same,Induction of NF-κB driven reporter (in words),[10],strongly induced this reporter
